Assay results taken from paper PMC4448982, “LP-925219 maximizes urinary glucose excretion in mice by inhibiting both renal SGLT1 and SGLT2” (Pharmacology Research & Perspectives, 2015).

What was measured:
mouse SGLT2 = target: T1, mouse SGLT2 (Mus musculus, UniProt Q923I7); assay: 14C-AMG uptake assay, HEK293 cells expressing mouse SGLT2; assay type: cell-based; settings: mean ± SD
T1 construct: expressed in transfected cells; host or cells: HEK293 (per abstract)
T1 sequence (Q923I7 1-670): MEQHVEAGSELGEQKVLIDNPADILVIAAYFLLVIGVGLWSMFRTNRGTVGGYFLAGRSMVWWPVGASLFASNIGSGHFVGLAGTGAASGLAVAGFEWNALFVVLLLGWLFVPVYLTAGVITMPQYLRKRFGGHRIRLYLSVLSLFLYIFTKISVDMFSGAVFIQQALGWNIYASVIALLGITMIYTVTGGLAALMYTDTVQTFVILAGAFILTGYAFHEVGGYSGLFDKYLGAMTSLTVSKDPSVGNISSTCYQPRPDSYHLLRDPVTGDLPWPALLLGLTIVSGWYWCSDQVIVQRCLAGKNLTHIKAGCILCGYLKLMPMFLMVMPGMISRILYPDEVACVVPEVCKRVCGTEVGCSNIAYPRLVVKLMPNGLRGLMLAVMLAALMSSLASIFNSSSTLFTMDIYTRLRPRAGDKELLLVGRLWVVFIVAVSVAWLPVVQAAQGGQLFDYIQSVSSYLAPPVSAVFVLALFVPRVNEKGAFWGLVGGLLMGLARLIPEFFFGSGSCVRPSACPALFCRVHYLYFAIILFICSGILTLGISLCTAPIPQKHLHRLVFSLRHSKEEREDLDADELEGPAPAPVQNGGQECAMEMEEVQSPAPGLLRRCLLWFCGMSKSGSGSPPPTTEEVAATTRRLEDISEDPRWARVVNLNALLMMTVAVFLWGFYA
From the text: (§1) Methods for generating cell lines expressing mouse, rat, and dog SGLT1 and SGLT2 are published (Powell et al. [2013b], [2014]). Full-length coding sequence of human SGLT1 (NP_000334) and human SGLT2 (NP_003032.1) with an HA-tag at the N-terminus were cloned into the mammalian expression vector pIRESpuro2 (Clontech, Mountain View, CA). HEK293 cells (ATCC, Manassas, VA) were transfected with the pIRESpuro2 vector containing human SGLT1 or SGLT2 and bulk stable cell lines were selected in the presence of 0.5 μg/mL of puromycin.
(§2) Cell lines expressing SGLT1 or SGLT2 were plated into poly-D-lysine-coated 384-well plates, and culture overnight in cell growth medium. Cells were washed, and then incubated in uptake buffer ([…], […] KCl, […] CaCl2, […] MgCl2, […] HEPES/Tris, 1 mg/mL of bovine serum albumin, pH7.4) containing [^14C]α-methylglucopyranoside (^14C-AMG), a nonmetabolizable glucose analog specific for sodium-dependent glucose transporters (Wright and Turk [2004]). The inhibition of SGLT1 or SGLT2 was determined by measuring SGLT1/2-mediated ^14C-AMG uptake in the presence of increasing compound concentrations of LP-925219. […] Standard sigmoidal dose–response model curves were fitted, and the IC50 value was computed as the LP-925219 concentration that inhibited the ^14C-AMG uptake by 50% between baseline and maximum uptake.

rat SGLT2 = target: T2, rat SGLT2 (Rattus norvegicus, UniProt P53792); assay: 14C-AMG uptake assay, cells expressing rat SGLT2; assay type: cell-based; settings: mean ± SD
T2 construct: expressed in transfected cells; host or cells: HEK293 (per abstract)
T2 sequence (P53792 1-670): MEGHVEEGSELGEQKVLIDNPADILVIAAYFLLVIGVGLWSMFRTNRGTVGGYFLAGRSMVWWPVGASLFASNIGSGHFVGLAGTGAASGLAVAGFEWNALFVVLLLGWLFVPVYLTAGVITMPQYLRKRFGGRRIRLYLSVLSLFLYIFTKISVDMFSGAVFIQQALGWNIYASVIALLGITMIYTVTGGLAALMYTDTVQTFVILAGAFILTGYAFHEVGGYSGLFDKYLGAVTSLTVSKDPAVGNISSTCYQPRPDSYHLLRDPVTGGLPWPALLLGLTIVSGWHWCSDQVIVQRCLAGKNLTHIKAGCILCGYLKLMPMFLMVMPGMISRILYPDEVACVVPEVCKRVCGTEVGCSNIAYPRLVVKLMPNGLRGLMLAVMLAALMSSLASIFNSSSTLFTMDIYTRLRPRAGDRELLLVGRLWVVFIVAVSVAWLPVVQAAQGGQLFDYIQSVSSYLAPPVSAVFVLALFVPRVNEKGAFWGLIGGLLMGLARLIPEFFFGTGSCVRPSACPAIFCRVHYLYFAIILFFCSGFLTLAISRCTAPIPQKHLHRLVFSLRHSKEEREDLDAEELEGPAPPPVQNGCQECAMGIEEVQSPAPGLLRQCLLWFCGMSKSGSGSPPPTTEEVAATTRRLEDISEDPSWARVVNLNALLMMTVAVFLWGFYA
From the text: as §1, §2

human SGLT1 = target: T3, human SGLT1 (Homo sapiens, UniProt P13866); assay: Compound washout study, cells expressing human SGLT1
T3 sequence (P13866 1-664): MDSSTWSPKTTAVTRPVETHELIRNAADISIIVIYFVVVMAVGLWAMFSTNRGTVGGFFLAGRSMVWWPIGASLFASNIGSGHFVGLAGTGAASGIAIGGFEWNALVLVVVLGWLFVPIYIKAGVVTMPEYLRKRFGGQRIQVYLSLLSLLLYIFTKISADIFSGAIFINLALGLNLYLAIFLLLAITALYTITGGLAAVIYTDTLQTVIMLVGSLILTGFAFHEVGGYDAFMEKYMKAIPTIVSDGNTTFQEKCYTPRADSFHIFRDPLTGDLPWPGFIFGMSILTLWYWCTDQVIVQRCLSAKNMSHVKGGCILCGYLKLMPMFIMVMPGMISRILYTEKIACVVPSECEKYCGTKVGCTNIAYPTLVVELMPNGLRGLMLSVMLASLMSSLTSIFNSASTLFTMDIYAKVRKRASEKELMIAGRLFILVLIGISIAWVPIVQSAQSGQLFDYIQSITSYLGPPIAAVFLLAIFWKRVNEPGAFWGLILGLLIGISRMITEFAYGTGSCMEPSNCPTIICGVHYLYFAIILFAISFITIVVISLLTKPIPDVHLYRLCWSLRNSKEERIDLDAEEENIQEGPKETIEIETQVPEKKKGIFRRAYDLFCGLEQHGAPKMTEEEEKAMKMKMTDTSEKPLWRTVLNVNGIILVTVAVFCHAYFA
From the text: Cells expressing human SGLT2 were studied using the above protocol. […] Cells expressing human SGLT2 were studied using the above protocol.

**Q.** COc1ccc(Cc2cc([C@@H]3O[C@H](SC)[C@@H](O)[C@H](O)[C@H]3O)ccc2Cl)cc1 [LP-925219] was tested. Which IC50 (mouse SGLT2) did it give?
**A.** 0.5 ± 0.1 nM

**Q.** And the IC50 (rat SGLT2)?
**A.** 0.3 ± 0.2 nM

**Q.** And the IC50 (human SGLT1; no wash protocol)?
**A.** 13 nM

**Q.** And the IC50 (human SGLT1; washout protocol, 18-20 h recovery after 30 min treatment)?
**A.** 1310 nM
